Results taken from patent US20230139171A1 (SITA Information Networking Computing UK Limited, priority 2019, published 2023).

What was measured:
Format in all cases: cell-based
human TLR7 = molecular target: T1, human TLR7 (Homo sapiens, UniProt Q9NYK1); test: TLR7 inhibition reporter assay (HEK-Blue cells, SEAP reporter, gardiquimod stimulation); conditions: HEK-Blue cells overexpressing human TLR7, SEAP reporter, gardiquimod 7.5 μM; read-out: TLR7 IC50
T1 construct: host or cells: HEK-Blue cells
T1 sequence (Q9NYK1 27-1049): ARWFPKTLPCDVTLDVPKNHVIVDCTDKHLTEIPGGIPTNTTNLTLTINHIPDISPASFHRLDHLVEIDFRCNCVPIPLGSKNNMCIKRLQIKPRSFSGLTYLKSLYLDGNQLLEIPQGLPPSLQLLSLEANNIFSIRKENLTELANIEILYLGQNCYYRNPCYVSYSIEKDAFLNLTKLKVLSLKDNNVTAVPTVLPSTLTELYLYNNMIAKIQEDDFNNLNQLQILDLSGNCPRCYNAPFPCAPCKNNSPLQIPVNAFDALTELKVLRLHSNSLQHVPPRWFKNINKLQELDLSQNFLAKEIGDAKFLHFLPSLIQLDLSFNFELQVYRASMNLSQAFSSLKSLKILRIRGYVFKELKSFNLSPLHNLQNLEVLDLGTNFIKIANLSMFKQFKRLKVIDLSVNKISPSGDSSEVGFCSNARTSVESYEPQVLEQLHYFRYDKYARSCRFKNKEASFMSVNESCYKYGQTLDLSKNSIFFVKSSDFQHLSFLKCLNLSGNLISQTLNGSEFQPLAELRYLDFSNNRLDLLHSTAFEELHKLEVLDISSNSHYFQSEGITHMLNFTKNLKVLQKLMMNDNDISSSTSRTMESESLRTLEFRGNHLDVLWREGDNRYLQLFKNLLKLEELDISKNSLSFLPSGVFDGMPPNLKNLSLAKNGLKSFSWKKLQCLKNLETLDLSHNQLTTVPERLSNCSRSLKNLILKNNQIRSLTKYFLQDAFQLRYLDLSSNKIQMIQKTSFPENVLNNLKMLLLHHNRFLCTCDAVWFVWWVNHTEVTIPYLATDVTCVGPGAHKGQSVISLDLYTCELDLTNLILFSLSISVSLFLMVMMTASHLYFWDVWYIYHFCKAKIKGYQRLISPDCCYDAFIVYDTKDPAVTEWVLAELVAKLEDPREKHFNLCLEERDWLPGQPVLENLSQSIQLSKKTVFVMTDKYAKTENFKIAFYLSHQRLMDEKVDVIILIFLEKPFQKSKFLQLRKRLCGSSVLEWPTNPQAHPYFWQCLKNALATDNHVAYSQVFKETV
Method in brief: (§1)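 Screening used HEK-Blue cells overexpressing one human TLR (7, 8 or 9) and an IFN-β minimal promoter–NF-κB/AP-1 SEAP construct. Stimulation lasted 22 h at 37 °C with receptor-specific agonist: gardiquimod, R848 or ODN2006 at 7.5 μM, 15.9 μM and 5 nM.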

human TLR8 = molecular target: T2, human TLR8 (Homo sapiens, UniProt Q9NR97); test: TLR8 inhibition reporter assay (HEK-Blue cells, SEAP reporter, R848 stimulation); conditions: HEK-Blue cells overexpressing human TLR8, SEAP reporter, R848 15.9 μM; read-out: TLR8 IC50
T2 construct: host or cells: HEK-Blue cells
T2 sequence (Q9NR97 27-1041): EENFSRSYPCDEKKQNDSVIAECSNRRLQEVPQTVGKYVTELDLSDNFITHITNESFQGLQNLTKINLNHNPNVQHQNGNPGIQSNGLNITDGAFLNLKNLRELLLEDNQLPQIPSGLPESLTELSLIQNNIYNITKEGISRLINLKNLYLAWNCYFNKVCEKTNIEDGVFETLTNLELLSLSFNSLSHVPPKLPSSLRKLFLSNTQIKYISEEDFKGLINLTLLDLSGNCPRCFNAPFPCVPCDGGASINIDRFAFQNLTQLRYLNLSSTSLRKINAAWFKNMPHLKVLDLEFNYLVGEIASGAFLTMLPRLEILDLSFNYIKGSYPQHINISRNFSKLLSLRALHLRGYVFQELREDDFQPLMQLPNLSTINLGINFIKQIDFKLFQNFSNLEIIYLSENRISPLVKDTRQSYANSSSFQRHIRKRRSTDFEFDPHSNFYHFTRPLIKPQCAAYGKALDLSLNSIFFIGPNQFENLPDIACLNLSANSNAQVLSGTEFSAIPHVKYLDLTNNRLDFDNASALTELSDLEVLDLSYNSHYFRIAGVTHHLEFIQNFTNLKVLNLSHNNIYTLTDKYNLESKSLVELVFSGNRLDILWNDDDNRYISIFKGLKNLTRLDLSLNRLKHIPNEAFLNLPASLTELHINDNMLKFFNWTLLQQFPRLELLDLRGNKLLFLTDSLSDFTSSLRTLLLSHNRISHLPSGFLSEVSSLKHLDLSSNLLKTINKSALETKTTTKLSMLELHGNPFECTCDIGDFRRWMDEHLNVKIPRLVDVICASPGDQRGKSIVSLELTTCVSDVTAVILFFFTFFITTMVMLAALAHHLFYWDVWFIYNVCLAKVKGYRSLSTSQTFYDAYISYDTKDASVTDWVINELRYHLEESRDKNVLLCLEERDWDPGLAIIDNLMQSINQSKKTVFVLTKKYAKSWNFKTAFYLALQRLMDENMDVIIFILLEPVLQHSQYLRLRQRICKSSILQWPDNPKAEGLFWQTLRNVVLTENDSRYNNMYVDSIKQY
Method in brief: as §1

human TLR9 = molecular target: T3, human TLR9 (Homo sapiens, UniProt Q9NR96); test: TLR9 inhibition reporter assay (HEK-Blue cells, SEAP reporter, ODN2006 stimulation); conditions: HEK-Blue cells overexpressing human TLR9, SEAP reporter, ODN2006 5 nM
T3 construct: host or cells: HEK-Blue cells
T3 sequence (Q9NR96 26-1032): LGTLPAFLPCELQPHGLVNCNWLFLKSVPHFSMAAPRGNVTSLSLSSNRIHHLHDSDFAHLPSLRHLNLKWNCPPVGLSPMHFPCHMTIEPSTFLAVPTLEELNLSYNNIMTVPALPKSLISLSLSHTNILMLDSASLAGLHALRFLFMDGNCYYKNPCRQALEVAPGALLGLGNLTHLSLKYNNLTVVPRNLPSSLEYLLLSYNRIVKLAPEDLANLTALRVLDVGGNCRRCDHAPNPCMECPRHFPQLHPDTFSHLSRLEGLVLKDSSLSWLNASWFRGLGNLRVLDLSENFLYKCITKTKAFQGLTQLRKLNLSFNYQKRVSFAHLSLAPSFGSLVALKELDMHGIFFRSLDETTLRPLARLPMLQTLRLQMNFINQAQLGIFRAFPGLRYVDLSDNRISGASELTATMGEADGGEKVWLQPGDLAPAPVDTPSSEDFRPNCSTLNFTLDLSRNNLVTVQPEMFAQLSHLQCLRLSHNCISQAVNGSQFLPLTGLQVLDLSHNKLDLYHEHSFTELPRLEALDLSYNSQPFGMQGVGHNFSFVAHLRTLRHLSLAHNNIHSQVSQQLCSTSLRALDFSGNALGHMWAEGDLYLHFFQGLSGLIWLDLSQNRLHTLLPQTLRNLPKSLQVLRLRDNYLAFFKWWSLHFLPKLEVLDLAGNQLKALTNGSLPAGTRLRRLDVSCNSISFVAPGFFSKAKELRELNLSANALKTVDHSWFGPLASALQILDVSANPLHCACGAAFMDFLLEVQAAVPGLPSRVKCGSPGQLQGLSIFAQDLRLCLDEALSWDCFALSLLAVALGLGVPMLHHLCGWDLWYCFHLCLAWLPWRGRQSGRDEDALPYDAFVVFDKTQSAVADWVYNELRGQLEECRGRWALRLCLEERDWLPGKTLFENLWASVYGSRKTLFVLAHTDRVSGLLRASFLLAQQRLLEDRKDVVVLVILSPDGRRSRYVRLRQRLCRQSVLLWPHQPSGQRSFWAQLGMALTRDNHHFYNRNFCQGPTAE
Method in brief: as §1

| SMILES | IC50 (human TLR7) [nM] | IC50 (human TLR8) [nM] | IC50 (human TLR9) [nM] |
| --- | --- | --- | --- |
| CC(C)c1c(-c2cn(C)c3ncccc23)[nH]c2sc(C3CCN(CC(=O)N(C)C)CC3)nc12 [Example 30, 2-(4-(6-isopropyl-5-(1-methyl-1H-pyrrolo[2,3-b]pyridin-3-yl)-4H-pyrrolo[3,2-d]thiazol-2-yl)piperidin-1-yl)-N,N-dimethylacetamide] | 4.37 | 2.07 | 14800 |
| CC(C)c1c(-c2cn(C)c3ncccc23)[nH]c2sc(C3CCN(C4CCOCC4)CC3)nc12 [Example 35, 6-isopropyl-5-(1-methyl-1H-pyrrolo[2,3-b]pyridin-3-yl)-2-(1-(tetrahydro-2H-pyran-4-yl)piperidin-4-yl)-4H-pyrrolo[3,2-d]thiazole] | 2.77 | 0.79 | 4350 |
| CC(C)c1c(-c2cn(C)c3ncccc23)[nH]c2sc(C3CCN(C(C)C)CC3)nc12 [Example 36, 6-isopropyl-2-(1-isopropylpiperidin-4-yl)-5-(1-methyl-1H-pyrrolo[2,3-b]pyridin-3-yl)-4H-pyrrolo[3,2-d]thiazole] | 1300 | 1540 | 25200 |
| CC(C)c1c(-c2ccc(C#N)c3ncccc23)[nH]c2sc(C3CCN(C4COC4)CC3)nc12 [Example 37, 5-(6-isopropyl-2-(1-(oxetan-3-yl)piperidin-4-yl)-4H-pyrrolo[3,2-d]thiazol-5-yl)quinoline-8-carbonitrile] | 12.1 | 27 | 27900 |
| CC(C)c1c(-c2ccc(C#N)c3ncccc23)[nH]c2sc(C3CCN(C4CCOCC4)CC3)nc12 [Example 38, 5-(6-isopropyl-2-(1-(tetrahydro-2H-pyran-4-yl)piperidin-4-yl)-4H-pyrrolo[3,2-d]thiazol-5-yl) quinoline-8-carbonitrile] | 7.93 | 4.43 | 2280 |
| CC(C)c1c(-c2ccc(C#N)c3ncccc23)[nH]c2sc(C3CCN(C(=O)CN(C)C)CC3)nc12 [Example 39, 5-(2-(1-(dimethylglycyl)piperidin-4-yl)-6-isopropyl-4H-pyrrolo[3,2-d]thiazol-5-yl)quinoline-8-carbonitrile] | 8.31 | 25.5 | 3560 |
| CC(C)c1c(-c2ccc(C#N)c3ncccc23)[nH]c2sc(C3CCN(CC(=O)N(C)C)CC3)nc12 [Example 40, 2-(4-(5-(8-cyanoquinolin-5-yl)-6-isopropyl-4H-pyrrolo[3,2-d]thiazol-2-yl)piperidin-1-yl)-N,N-dimethylacetamide] | 29.9 | 31.1 | 18900 |
| Cc1c(-c2[nH]c3sc(C4CCNCC4)nc3c2C(C)C)cn2ncnc2c1C [Example 41, 5-(7,8-dimethyl-[1,2,4]triazolo[1,5-a]pyridin-6-yl)-6-isopropyl-2-(piperidin-4-yl)-4H-pyrrolo[3,2-d]thiazole] | 1.19 | 2.66 | 8430 |
| Cc1c(-c2[nH]c3sc(C4CCNCC4)nc3c2C(C)C)cn(C)c(=O)c1C [Example 42, 5-(6-isopropyl-2-(piperidin-4-yl)-4H-pyrrolo[3,2-d]thiazol-5-yl)-1,3,4-trimethylpyridin-2(1H)-one] | 2.99 | 6.77 | 19000 |
| Cc1c(-c2[nH]c3sc(C4CCN(C(C)C)CC4)nc3c2C(C)C)cn2ncnc2c1C [Example 44, 5-(7,8-dimethyl-[1,2,4]triazolo[1,5-a]pyridin-6-yl)-6-isopropyl-2-(1-isopropylpiperidin-4-yl)-4H-pyrrolo[3,2-d]thiazole] | 1.68 | 0.63 | 15100 |
| Cc1c(-c2[nH]c3sc(C4CCN(S(C)(=O)=O)CC4)nc3c2C(C)C)cn2ncnc2c1C [Example 45, 5-(7,8-dimethyl-[1,2,4]triazolo[1,5-a]pyridin-6-yl)-6-isopropyl-2-(1-(methylsulfonyl)piperidin-4-yl)-4H-pyrrolo[3,2-d]thiazole] | 1.84 | 19.5 | 45400 |
| Cc1c(-c2[nH]c3sc(C4CCN(C5CCOCC5)CC4)nc3c2C(C)C)cn2ncnc2c1C [Example 46, 5-(7,8-dimethyl-[1,2,4]triazolo[1,5-a]pyridin-6-yl)-6-isopropyl-2-(1-(tetrahydro-2H-pyran-4-yl)piperidin-4-yl)-4H-pyrrolo[3,2-d]thiazole] | 0.57 | 0.11 | 2500 |
| Cc1c(-c2[nH]c3sc(C4CCN(CC5(C)COC5)CC4)nc3c2C(C)C)cn2ncnc2c1C [Example 47, 5-(7,8-dimethyl-[1,2,4]triazolo[1,5-a]pyridin-6-yl)-6-isopropyl-2-(1-((3-methyloxetan-3-yl)methyl)piperidin-4-yl)-4H-pyrrolo[3,2-d]thiazole] | 2.92 | 0.56 | 6840 |
